# Results reported in patent US20240190821A1, “SULFONAMIDE SUBSTITUTED N-(1H-INDOL-7-YL)BENZENESULFONAMIDES AND USES THEREOF” (Triana Biomedicines, Inc., priority 2021, published 2024).
# Molecular target: DCAF15 (Homo sapiens, UniProt Q66K64)
# Experiment: Binary interaction between compounds and DCAF15, HTRF competition assay
# Format: binding
# Details: HTRF competition with Alexa Fluor 647 tracer, His-tagged DCAF15 complex; read-out: DCAF15 IC50
# Experimental: DCAF15 interactions with test compounds were monitored using HTRF competition assays (Cisbio, Bedford, MA). […] These two solutions were mixed and incubated for 15 min at room temperature. 9.8 ul of the tracer solution and 10 ul of the DCAF15/mAb Anti-6His-Eu cryptate Gold mixture were added sequentially to each well in the assay plate. Reaction mixtures with no DCAF15 added were included as […] controls. […] Binding was estimated based on ratiometric analysis and titration curves were generated in GraphPad Prism (7.00, GraphPad, La Jolla, CA).
# Sequence of DCAF15 (Q66K64 whole entry): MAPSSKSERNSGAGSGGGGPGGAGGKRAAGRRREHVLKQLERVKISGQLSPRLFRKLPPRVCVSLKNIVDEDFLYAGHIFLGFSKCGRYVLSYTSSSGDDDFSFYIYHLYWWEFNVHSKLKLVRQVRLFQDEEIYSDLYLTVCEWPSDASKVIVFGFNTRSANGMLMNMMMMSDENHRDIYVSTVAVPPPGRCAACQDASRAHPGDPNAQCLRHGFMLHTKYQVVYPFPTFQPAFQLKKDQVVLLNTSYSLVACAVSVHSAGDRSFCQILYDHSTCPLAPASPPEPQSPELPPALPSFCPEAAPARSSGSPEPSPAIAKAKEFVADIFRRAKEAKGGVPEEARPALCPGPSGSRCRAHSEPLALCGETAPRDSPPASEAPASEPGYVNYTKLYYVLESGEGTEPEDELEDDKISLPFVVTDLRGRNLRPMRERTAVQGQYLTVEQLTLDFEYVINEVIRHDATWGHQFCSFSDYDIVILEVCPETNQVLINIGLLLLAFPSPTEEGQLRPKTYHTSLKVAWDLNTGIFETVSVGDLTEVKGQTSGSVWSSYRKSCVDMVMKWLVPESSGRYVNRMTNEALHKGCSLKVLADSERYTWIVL
# Sequence of DCAF15 (Q16531 whole entry partner): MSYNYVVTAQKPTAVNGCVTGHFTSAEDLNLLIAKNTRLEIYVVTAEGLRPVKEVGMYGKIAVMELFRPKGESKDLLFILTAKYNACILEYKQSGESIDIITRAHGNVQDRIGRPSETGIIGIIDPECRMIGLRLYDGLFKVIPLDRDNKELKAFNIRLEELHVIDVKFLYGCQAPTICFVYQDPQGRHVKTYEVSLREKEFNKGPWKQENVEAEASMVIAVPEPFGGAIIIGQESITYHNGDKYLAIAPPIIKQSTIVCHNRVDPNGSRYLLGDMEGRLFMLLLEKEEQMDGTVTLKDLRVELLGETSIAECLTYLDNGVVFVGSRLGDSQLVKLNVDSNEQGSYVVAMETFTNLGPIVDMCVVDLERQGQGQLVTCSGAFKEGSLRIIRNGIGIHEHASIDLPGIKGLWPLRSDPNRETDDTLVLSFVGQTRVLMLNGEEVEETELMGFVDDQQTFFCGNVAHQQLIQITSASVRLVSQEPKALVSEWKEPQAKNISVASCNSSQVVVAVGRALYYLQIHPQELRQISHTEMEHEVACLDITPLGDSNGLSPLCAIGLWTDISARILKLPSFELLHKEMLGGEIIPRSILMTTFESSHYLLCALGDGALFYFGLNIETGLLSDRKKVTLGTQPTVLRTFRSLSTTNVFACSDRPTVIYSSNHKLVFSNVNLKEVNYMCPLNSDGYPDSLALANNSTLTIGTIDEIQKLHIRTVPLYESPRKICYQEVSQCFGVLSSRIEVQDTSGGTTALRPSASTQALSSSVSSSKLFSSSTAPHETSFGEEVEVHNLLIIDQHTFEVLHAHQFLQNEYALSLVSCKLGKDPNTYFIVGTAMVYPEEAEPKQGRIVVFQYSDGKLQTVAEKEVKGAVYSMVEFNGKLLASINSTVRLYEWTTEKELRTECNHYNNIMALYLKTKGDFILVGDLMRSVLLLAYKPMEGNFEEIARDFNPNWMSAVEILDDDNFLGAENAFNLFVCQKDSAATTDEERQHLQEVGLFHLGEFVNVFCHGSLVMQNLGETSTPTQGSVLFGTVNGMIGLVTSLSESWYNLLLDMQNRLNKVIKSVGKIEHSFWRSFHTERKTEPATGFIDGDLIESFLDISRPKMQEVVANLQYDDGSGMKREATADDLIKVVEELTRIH
row,IC50 [µM],Structure (SMILES)
1,< 100,"O=S(=O)(NCCCOCc1ccccc1)c1ccc(S(=O)(=O)Nc2ccc(Cl)c3c(Cl)c[nH]c23)cc1 [Compound 5, N^1-(3-(benzyloxy)propyl)-N^4-(3,4-dichloro-1H-indol-7-yl)benzene-1,4-disulfonamide]"
2,< 20,"COCCOCCCNS(=O)(=O)c1ccc(S(=O)(=O)Nc2ccc(Cl)c3c(Cl)c[nH]c23)cc1 [Compound 7, N^1-(3,4-dichloro-1H-indol-7-yl)-N^4-(3-(2-methoxyethoxy)propyl)benzene-1,4-disulfonamide]"
3,< 20,"CC(C)(C)OC(=O)NC1(CNS(=O)(=O)c2ccc(S(=O)(=O)Nc3ccc(Cl)c4c(Cl)c[nH]c34)cc2)CC1 [Compound 9, tert-butyl (1-(((4-(N-(3,4-dichloro-1H-indol-7-yl)sulfamoyl)phenyl)sulfonamido)methyl)cyclopropyl) carbamate]"
4,< 5,CCCC1CN(S(=O)(=O)c2ccc(S(=O)(=O)Nc3ccc(Cl)c4c(Cl)c[nH]c34)cc2)CCN1 (centres unmarked) [compound 110]
5,< 100,O=S(=O)(Nc1ccc(C2CC2)c2c(Cl)c[nH]c12)c1ccc(S(=O)(=O)N2CCNCC2)cc1 [compound 147]

# Molecular target: T1, DCAF15-RBM39 ternary complex (Homo sapiens, UniProt Q14498+Q66K64)
# T1 construct: (RRM2)
# T1 sequence (Q66K64 whole entry): as the sequence (Q66K64 whole entry) above
# T1 sequence (Q14498 250-328 limits assumed): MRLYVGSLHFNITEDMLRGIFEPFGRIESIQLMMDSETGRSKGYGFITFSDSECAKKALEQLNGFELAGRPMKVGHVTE
# T1 sequence (Q16531 whole entry partner): as the sequence (Q16531 whole entry partner) above
# Experiment: Compound-induced DCAF15-RBM39 ternary complex formation, AlphaLISA
# Format: biochemical
# Details: not given
# Experimental: Compound-induced DCAF15-RBM39 ternary complex formation was monitored using AlphaLISA® assays (Perkin Elmer, Waltham, MA). […] 9.8 ul of this protein mixture was then mixed with the compounds in the assay plate and incubated for one hour at room temperature. Reaction mixtures with no compounds added were included as negative controls, while a His-tagged and biotinylated GST protein was included to track general assay performance. […] The beads were then added to the assay plate sequentially with incubation at room temperature for 1-2 hours after each addition.
row,Structure (SMILES),EC50 [nM]
1,"N#Cc1ccc(CCCN2CCN(S(=O)(=O)c3ccc(S(=O)(=O)Nc4ccc(Cl)c5c(Cl)c[nH]c45)cc3)CC2)cc1 [Compound 50, 4-((4-(3-(4-cyanophenyl)propyl)piperazin-1-yl)sulfonyl)-N-(3,4-dichloro-1H-indol-7-yl)benzenesulfonamide]",< 1000

# Same assay, conditions: AlphaLISA, His-tagged DCAF15 complex and biotin-carrying RBM39; read-out: Ternary-RBM39 (RRM2) EC50
row,Structure (SMILES),EC50 [nM]
1,"CCS(=O)(=O)CCNS(=O)(=O)c1ccc(S(=O)(=O)Nc2ccc(Cl)c3c(Cl)c[nH]c23)cc1 [Compound 3, N^1-(3,4-dichloro-1H-indol-7-yl)-N^4-(2-(ethylsulfonyl)ethyl) benzene-1,4-disulfonamide]",< 1000
2,"O=S(=O)(NCCCOCc1ccccc1)c1ccc(S(=O)(=O)Nc2ccc(Cl)c3c(Cl)c[nH]c23)cc1 [Compound 5, N^1-(3-(benzyloxy)propyl)-N^4-(3,4-dichloro-1H-indol-7-yl)benzene-1,4-disulfonamide]",< 20000
3,"O=S(=O)(NCCOCC1CC1)c1ccc(S(=O)(=O)Nc2ccc(Cl)c3c(Cl)c[nH]c23)cc1 [Compound 6, N^1-(2-(cyclopropylmethoxy)ethyl)-N^4-(3,4-dichloro-1H-indol-7-yl)benzene-1,4-disulfonamide]",< 5000
4,"COCCOCCCNS(=O)(=O)c1ccc(S(=O)(=O)Nc2ccc(Cl)c3c(Cl)c[nH]c23)cc1 [Compound 7, N^1-(3,4-dichloro-1H-indol-7-yl)-N^4-(3-(2-methoxyethoxy)propyl)benzene-1,4-disulfonamide]",< 5000
5,"O=S(=O)(NCCc1ccccn1)c1ccc(S(=O)(=O)Nc2ccc(Cl)c3c(Cl)c[nH]c23)cc1 [Compound 26, N^1-(3,4-dichloro-1H-indol-7-yl)-N^4-(2-(pyridin-2-yl)ethyl)benzene-1,4-disulfonamide]",< 5000
6,"O=S(=O)(Nc1ccc(Cl)c2c(Cl)c[nH]c12)c1ccc(S(=O)(=O)N2CCCCC2)cc1 [Compound 37, N-(3,4-dichloro-1H-indol-7-yl)-4-(piperidin-1-ylsulfonyl)benzenesulfonamide]",< 1000
7,"O=S(=O)(Nc1ccc(Cl)c2c(Cl)c[nH]c12)c1cccc(S(=O)(=O)N2CCNCC2)c1 [Compound 41, N-(3,4-dichloro-1H-indol-7-yl)-3-(piperazin-1-ylsulfonyl)benzenesulfonamide]",< 1000
8,"CC1CNCCN1S(=O)(=O)c1ccc(S(=O)(=O)Nc2ccc(Cl)c3c(Cl)c[nH]c23)cc1 (centres unmarked) [Compound 46, N-(3,4-dichloro-1H-indol-7-yl)-4-((2-methylpiperazin-1-yl)sulfonyl)benzene sulfonamide]",< 1000
9,"CN1CCN(S(=O)(=O)c2ccc(S(=O)(=O)Nc3ccc(Cl)c4c(Cl)c[nH]c34)cc2)CC1 [Compound 48, N-(3,4-dichloro-1H-indol-7-yl)-4-((4-methylpiperazin-1-yl)sulfonyl)benzenesulfonamide]",< 1000
10,"CCOC(=O)N1CCN(S(=O)(=O)c2ccc(S(=O)(=O)Nc3ccc(Cl)c4c(Cl)c[nH]c34)cc2)CC1 [Compound 49, ethyl 4-((4-(N-(3,4-dichloro-1H-indol-7-yl)sulfamoyl)phenyl)sulfonyl)piperazine-1-carboxylate]",< 5000
11,"Cc1ccc(NS(=O)(=O)c2ccc(S(=O)(=O)N(C)C3CNC3)cc2)c2[nH]cc(C#N)c12 [Compound 79, N^1-(azetidin-3-yl)-N^4-(3-cyano-4-methyl-1H-indol-7-yl)-N^1-methylbenzene-1,4-disulfonamide]",< 1000
12,"CCC1CN(S(=O)(=O)c2ccc(S(=O)(=O)Nc3ccc(C)c4c(C#N)c[nH]c34)cc2)CCN1 (centres unmarked) [Compound 84, N-(3-cyano-4-methyl-1H-indol-7-yl)-4-((3-ethylpiperazin-1-yl)sulfonyl) benzenesulfonamide]",< 1000
13,"COCCN1CCN(S(=O)(=O)c2ccc(S(=O)(=O)Nc3ccc(C)c4c(C#N)c[nH]c34)cc2)CC1 [Compound 85, N-(3-cyano-4-methyl-1H-indol-7-yl)-4-((4-(2-methoxyethyl)piperazin-1-yl)sulfonyl)benzenesulfonamide]",< 1000
14,"Cc1ccc(NS(=O)(=O)c2ccc(S(=O)(=O)N3CCNC(=O)C3)cc2)c2[nH]cc(C#N)c12 [Compound 89, N-(3-cyano-4-methyl-1H-indol-7-yl)-4-((3-oxopiperazin-1-yl)sulfonyl)benzenesulfonamide]",< 1000
15,"Cc1ccc(NS(=O)(=O)c2ccc(S(=O)(=O)N3CC4(CNC4)C3)cc2)c2[nH]cc(C#N)c12 [Compound 93, 4-((2,6-diazaspiro[3.3]heptan-2-yl)sulfonyl)-N-(3-cyano-4-methyl-1H-indol-7-yl)benzenesulfonamide]",< 1000
16,"Cc1ccc(NS(=O)(=O)c2cc(F)cc(C#N)c2)c2[nH]cc(C#N)c12 [Compound 98, 3-cyano-N-(3-cyano-4-methyl-1H-indol-7-yl)-5-fluorobenzenesulfonamide]",< 1000
17,"COc1cc(NS(=O)(=O)c2cccc(C#N)c2)c2[nH]cc(Cl)c2c1 [Compound 103, N-(3-chloro-5-methoxy-1H-indol-7-yl)-3-cyanobenzenesulfonamide]",< 1000
18,"O=C(NS(=O)(=O)c1ccc(Br)s1)c1ccc(Cl)cc1Cl [Tasisulam, tasisulam, reference compound]",< 5000
19,C#CCOCCOCCOCC(=O)N(CCC)c1ccc(S(=O)(=O)Nc2ccc(Cl)c3c(Cl)c[nH]c23)cc1 [compound 132],< 5000
20,O=S(=O)(Nc1cccc2cc[nH]c12)c1ccc(S(=O)(=O)N2CCNCC2)cc1 [compound 145],< 5000

# Next, values leading:
row,EC50 [nM],Structure (SMILES)
1,< 1000,"O=S1(=O)CCC(OCCNS(=O)(=O)c2ccc(S(=O)(=O)Nc3ccc(Cl)c4c(Cl)c[nH]c34)cc2)CC1 [Compound 4, N^1-(3,4-dichloro-1H-indol-7-yl)-N4_ (2-((1,1-dioxidotetrahydro-2H-thiopyran-4-yl)oxy)ethyl) benzene-1,4-disulfonamide]"
2,< 20000,"CC(C)(C)OC(=O)NC1(CNS(=O)(=O)c2ccc(S(=O)(=O)Nc3ccc(Cl)c4c(Cl)c[nH]c34)cc2)CC1 [Compound 9, tert-butyl (1-(((4-(N-(3,4-dichloro-1H-indol-7-yl)sulfamoyl)phenyl)sulfonamido)methyl)cyclopropyl) carbamate]"
3,< 20000,"CCN(CC)C(=O)c1ccc(CNS(=O)(=O)c2ccc(S(=O)(=O)Nc3ccc(Cl)c4c(Cl)c[nH]c34)cc2)cc1 [Compound 12, 4-(((4-(N-(3,4-dichloro-1H-indol-7-yl)sulfamoyl)phenyl)sulfonamido)methyl)-N,N-diethylbenzamid]"
4,< 1000,"O=S(=O)(Nc1ccc(Cl)c2c(Cl)c[nH]c12)c1ccc(S(=O)(=O)NC2CCNCC2)cc1 [Compound 29, N^1-(3,4-dichloro-1H-indol-7-yl)-N^4-(piperidin-4-yl)benzene-1,4-disulfonamide]"
5,< 20000,"O=S(=O)(Nc1ccc(Cl)c2c(Cl)c[nH]c12)c1ccc(S(=O)(=O)NC2CCc3ccccc32)cc1 (centres unmarked) [Compound 34, N^1-(3,4-dichloro-1H-indol-7-yl)-N^4-(2,3-dihydro-1H-inden-1-yl)benzene-1,4-disulfonamide]"
6,< 1000,"CCCN(c1ccc(S(=O)(=O)Nc2ccc(Cl)c3c(Cl)c[nH]c23)cc1)S(=O)(=O)C1CCN(C)CC1 [Compound 62, N-(4-(N-(3,4-dichloro-1H-indol-7-yl)sulfamoyl)phenyl)-1-methyl-N-propylpiperidine-4-sulfonamide]"
7,< 5000,"O=S(=O)(Nc1ccc(Cl)c2c(Cl)c[nH]c12)c1ccc(NS(=O)(=O)C2CCNCC2)cc1 [Compound 65, N-(4-(N-(3,4-dichloro-1H-indol-7-yl)sulfamoyl)phenyl)piperidine-4-sulfonamide]"
8,< 5000,"O=S(=O)(Nc1ccc(Cl)c2c(Cl)c[nH]c12)c1ccc(Br)cc1 [Compound 75, 4-bromo-N-(3,4-dichloro-1H-indol-7-yl)benzenesulfonamide]"
9,< 1000,"Cc1ccc(NS(=O)(=O)c2ccc(S(=O)(=O)N3CCCC(N)C3)cc2)c2[nH]cc(C#N)c12 (centres unmarked) [Compound 82, 4-((3-aminopiperidin-1-yl)sulfonyl)-N-(3-cyano-4-methyl-1H-indol-7-yl) benzenesulfonamide]"
10,< 1000,"Cc1ccc(NS(=O)(=O)c2ccc(S(=O)(=O)N3CCNCC3)cc2)c2[nH]cc(C#N)c12 [Compound 83, N-(3-cyano-4-methyl-1H-indol-7-yl)-4-(piperazin-1-ylsulfonyl)benzene sulfonamide]"
11,< 1000,"Cc1ccc(NS(=O)(=O)c2ccc(S(=O)(=O)N3CCOCC3)cc2)c2[nH]cc(C#N)c12 [Compound 90, N-(3-cyano-4-methyl-1H-indol-7-yl)-4-(morpholinosulfonyl)benzene sulfonamide]"
12,< 1000,"COCCc1cn(-c2cccc(S(=O)(=O)Nc3ccc(C)c4c(C#N)c[nH]c34)c2)nn1 [Compound 97, N-(3-cyano-4-methyl-1H-indol-7-yl)-3-(4-(2-methoxyethyl)-1H-1,2,3-triazol-1-yl)benzenesulfonamide]"
